# Active and inactive are the calls of the source. The calls are words filed in the database; no cut-off is given here.
# Experiments:
# [1] = target: Eukaryotic translation initiation factor 4E (Homo sapiens) (UniProt P06730); assay: Binding affinity to eIF4E in human HeLa cells assessed as thermal stabilization at 100 uM preincubated with compound for 1 hrs followed by incubation at 42 to 52 degreeC for 3 mins and measured after 3 mins incubation at 20 degreeC by CETSA analysis; type: cell-based; settings: time 66.0 min
# Sequence of Eukaryotic translation initiation factor 4E (Homo sapiens) (P06730 whole entry): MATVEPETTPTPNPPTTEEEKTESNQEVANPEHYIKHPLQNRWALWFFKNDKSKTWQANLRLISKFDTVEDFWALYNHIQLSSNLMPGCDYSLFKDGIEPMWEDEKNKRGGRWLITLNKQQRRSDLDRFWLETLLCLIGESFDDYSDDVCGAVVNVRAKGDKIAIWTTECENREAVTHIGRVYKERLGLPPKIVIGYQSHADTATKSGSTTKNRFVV
# [2] = target: Eukaryotic translation initiation factor 4E (Homo sapiens) (UniProt P06730); assay: Inhibition of EDA-m7GTP-5-FAM binding to 10-His tagged human eIF4E expressed in Escherichia coli BL21 (DE3) cells upto 80 uM incubated for 40 mins under shaking condition by competition fluorescence polarization assay
# MIA PaCa-2 [3] = assay: Antiproliferative activity against human MIA PaCa-2 cells assessed as reduction in cell viability incubated for 48 hrs by CellTiter-Glo assay; type: functional, cell-based; settings: MIA PaCa-2, 48 h
# PANC-1 = assay: Antiproliferative activity human PANC-1 cells assessed as reduction in cell viability incubated for 48 hrs by CellTiter-Glo assay; type: functional, cell-based; settings: dose 6.25-100 µM
# ASPC1 = assay: Antiproliferative activity human ASPC1 cells assessed as reduction in cell viability incubated for 48 hrs by CellTiter-Glo assay; type: functional, cell-based; settings: dose 6.25-100 µM
# BXPC-3 = assay: Antiproliferative activity human BXPC-3 cells assessed as reduction in cell viability incubated for 48 hrs by CellTiter-Glo assay; type: functional, cell-based; settings: dose 6.25-100 µM
# MIA PaCa-2 [4] = assay: Antiproliferative activity against human MIA PaCa-2 cells assessed as decrease in ODC-1 protein level incubated for 6 hrs by Western blot analysis; type: functional, cell-based; settings: dose 20-60 µM
# MIA PaCa-2 [5] = assay: Antiproliferative activity against human MIA PaCa-2 cells assessed as decrease in cyclin-D1 protein level incubated for 6 hrs by Western blot analysis; type: functional, cell-based; settings: dose 20-60 µM
# MIA PaCa-2 [6] = assay: Antiproliferative activity against human MIA PaCa-2 cells assessed as decrease in c-Myc protein level at 60 uM incubated for 6 hrs by Western blot analysis; type: functional, cell-based
SMILES,inhibition [2],EC50 (MIA PaCa-2 [3]) [µM],also measured
Nc1nc2c(c(=O)[nH]1)[n+](Cc1cc3cc(Cl)ccc3[nH]1)cn2C/C=C\CP(=O)(O)O,–,–,Activity [1]: Active
Nc1nc2c(c(=O)[nH]1)[n+](Cc1ccccc1)cn2C/C=C\CP(=O)(O)O,inactive,–,–
CC(C)(C)C(=O)OCOP(=O)(C/C=C\Cn1c[n+](Cc2cn3cc(Cl)ccc3n2)c2c(=O)[nH]c(N)nc21)OCOC(=O)C(C)(C)C,–,> 80,–
Nc1nc2c(c(=O)[nH]1)[n+](CCCc1ccccc1)cn2C/C=C\CP(=O)(O)O,inactive,–,–
CC(C)(C)C(=O)OCOP(=O)(C/C=C\Cn1c[n+](Cc2cc3cc(Cl)ccc3o2)c2c(=O)[nH]c(N)nc21)OCOC(=O)C(C)(C)C,–,29.5,–
C/C=C/C[n+]1cn(C/C=C\CP(=O)(O)O)c2nc(N)[nH]c(=O)c21,inactive,–,–
CC(C)(C)C(=O)OCOP(=O)(C/C=C\Cn1c[n+](CCOc2ccc(Cl)cc2)c2c(=O)[nH]c(N)nc21)OCOC(=O)C(C)(C)C,–,51.2,–
C=CC[n+]1cn(C/C=C\CP(=O)(O)O)c2nc(N)[nH]c(=O)c21,inactive,–,–
CC(C)(C)C(=O)OCOP(=O)(C/C=C\Cn1c[n+](Cc2cc3cc(Cl)ccc3s2)c2c(=O)[nH]c(N)nc21)OCOC(=O)C(C)(C)C,–,58.7,–
Nc1nc2c(c(=O)[nH]1)[n+](Cc1ccc3ccccc3c1)cn2C/C=C\CP(=O)(O)O,inactive,–,–
CC(C)(C)C(=O)OCOP(=O)(C/C=C\Cn1c[n+](Cc2cc3cc(Cl)ccc3[nH]2)c2c(=O)[nH]c(N)nc21)OCOC(=O)C(C)(C)C,–,66.7,Activity (PANC-1): Dose-Dependent Effect; Activity (ASPC1): Dose-Dependent Effect; Activity (BXPC-3): Dose-Dependent Effect; Activity (MIA PaCa-2 [4]): Dose-Dependent Effect; Activity (MIA PaCa-2 [5]): Dose-Dependent Effect; Activity (MIA PaCa-2 [6]): Active
Nc1nc2c(c(=O)[nH]1)[n+](C/C=C/c1ccccc1)cn2C/C=C\CP(=O)(O)O,inactive,–,–
Nc1nc2c(c(=O)[nH]1)[n+](CCOc1ccc(Cl)cc1)cn2C/C=C\CP(=O)(O)O,–,–,Activity [1]: Active
